Assay results published in patent US11173146B2, “Selective activators of the intermediate conductance CA2+activated K+ channel KCa3.1 and their methods of use” (The Regents of the University of California, priority 2014, dated 2021).
“Also recorded” adds a separate entry of the source.

Key:
[1] = molecular target: T1, mKV1.3 (Mus musculus, UniProt P16390); assay: KV1.3 current inhibition (L929 cells); assay type: cell-based
T1 construct: expressed in transfected cells; host or cells: L929
From the text: (§1) Cells, Cell lines and Clones. HEK-293 cells stably expressing hKCa2.1, rKCa2.2 and hKCa3.1 were obtained from Khaled Houamed (University of Chicago, Ill.) in 2002 and have been maintained in the Wulff laboratory at the University of California since then. The cloning of hKCa2.3 (19 CAG repeats) and hKCa3.1 has been previously described (Wulff et al., 2000). The hKCa2.3 clone was later stably expressed in COS-7 cells at Aurora Biosciences Corp., San Diego, Calif. […]
(§2) Electrophysiology. […] For manual experiments COS-7, HEK-293 or L929 cells were trypsinized, plated onto poly-L-lysine coated coverslips and typically recorded from between 20 min and 4 h after plating. […] Free Ca^2+ concentrations were calculated with MaxChelator assuming a temperature of 25° C., a pH of 7.2 and an ionic strength of 160 mM. To reduce contaminating currents from native chloride channels in COS-7 cells, KCa2.3 currents were recorded with an internal pipette solution containing (in mM): 145 K^+ aspartate, 2 MgCl2, 10 HEPES, 10 EGTA and 7.4 CaCl2 (500 nM free Ca^2+), pH 7.2, 290-310 mOsm. […] KV2.1, Kv1.3, and KV3.1 currents were recorded in normal Ringer solution with a Ca^2+-free KF-based pipette solution as previously described (Schmitz et al., 2005). HERG (KV11.1) currents were recorded with a 2-step pulse from −80 mV first to 20 mV for 1 sec and then to −50 mV for 1 sec. […]

[2] = test system: wild-type mice; assay: Telemetry of blood pressure and heart rate in wild-type mice; assay type: in vivo; details: for mean arterial blood pressure: FIG. 6A
Experimental: Telemetry. […] . […] . […] . […] . Maximal injection volume was ≤600 μl. […] . […] Data were analyzed using the DSI software.
. […] . The blood pressure drop was accompanied by a severe reduction of heart rate (HR) by ˜400 bpm (FIG. 6A left). To avoid fatal hypothermia or circulatory collapse, we handled these severely bradycardic mice for ˜2 h and increased RT to 34° C. As shown in FIG. 6A these maneuvers increased MAP transiently, presumably because of a sympathetic input on total peripheral resistance, but not HR and the low HR persisted over another 10 h before the mice slowly recovered (FIG. 6A left). […] However, this drop was more transient and lasted for ˜3 h.

[3] = molecular target: hKCa2.1 (Homo sapiens, UniProt P0DP23+Q92952); assay: Whole-cell patch-clamp KCa2.1 activation (HEK-293)
Experimental: (§3) Electrophysiology. Experiments were conducted either manually with an EPC-10 amplifier (HEKA, Lambrecht/Pfalz, Germany) or on a QPatch-16 automated electrophysiology platform (Sophion Biosciences, Denmark). […] Patch pipettes were pulled from soda lime glass (micro-hematocrit tubes, Kimble Chase, Rochester, N.Y.) and had resistances of 2-3 MΩ. […] Free Ca^2+ concentrations were calculated with MaxChelator assuming a temperature of 25° C., a pH of 7.2 and an ionic strength of 160 mM. […] Na^+ aspartate Ringer was used as an external solution (in mM): 160 Na^+ aspartate, 4.5 KCl, 2 CaCl2, 1 MgCl2, 5 HEPES, pH 7.4, 290-310 mOsm. Both KCa2 and KCa3.1 currents were elicited by 200-ms voltage ramps from −120 mV to 40 mV applied every 10 sec and the fold-increase of slope conductance at −80 mV by drug taken as a measure of channel activation.
(§4) For automated electrophysiology experiments cells were grown to ˜70% confluency, rinsed in sterile PBS containing 0.02% EDTA, and lifted with 2 mL of TrypLE™ Express (Gibco, Grand Island, N.Y.) for ˜2 min. […] Current slopes (in ampere per sec) were measured using the SophionQPatch software and exported to Microsoft Excel and Origin 7.0 (OriginLab Corp. MA) for analysis.

[4] = molecular target: rKCa2.2 (UniProt P0DP23+P70604); assay: Whole-cell patch-clamp KCa2.2 activation (HEK-293)
Experimental: as §3, §4

[5] = molecular target: T2, hKCa1.1 (Homo sapiens, UniProt Q12791); assay: KCa1.1 current modulation (QPatch); assay type: cell-based
T2 construct: host or cells: HEK-293
T2 sequence (Q12791 whole entry): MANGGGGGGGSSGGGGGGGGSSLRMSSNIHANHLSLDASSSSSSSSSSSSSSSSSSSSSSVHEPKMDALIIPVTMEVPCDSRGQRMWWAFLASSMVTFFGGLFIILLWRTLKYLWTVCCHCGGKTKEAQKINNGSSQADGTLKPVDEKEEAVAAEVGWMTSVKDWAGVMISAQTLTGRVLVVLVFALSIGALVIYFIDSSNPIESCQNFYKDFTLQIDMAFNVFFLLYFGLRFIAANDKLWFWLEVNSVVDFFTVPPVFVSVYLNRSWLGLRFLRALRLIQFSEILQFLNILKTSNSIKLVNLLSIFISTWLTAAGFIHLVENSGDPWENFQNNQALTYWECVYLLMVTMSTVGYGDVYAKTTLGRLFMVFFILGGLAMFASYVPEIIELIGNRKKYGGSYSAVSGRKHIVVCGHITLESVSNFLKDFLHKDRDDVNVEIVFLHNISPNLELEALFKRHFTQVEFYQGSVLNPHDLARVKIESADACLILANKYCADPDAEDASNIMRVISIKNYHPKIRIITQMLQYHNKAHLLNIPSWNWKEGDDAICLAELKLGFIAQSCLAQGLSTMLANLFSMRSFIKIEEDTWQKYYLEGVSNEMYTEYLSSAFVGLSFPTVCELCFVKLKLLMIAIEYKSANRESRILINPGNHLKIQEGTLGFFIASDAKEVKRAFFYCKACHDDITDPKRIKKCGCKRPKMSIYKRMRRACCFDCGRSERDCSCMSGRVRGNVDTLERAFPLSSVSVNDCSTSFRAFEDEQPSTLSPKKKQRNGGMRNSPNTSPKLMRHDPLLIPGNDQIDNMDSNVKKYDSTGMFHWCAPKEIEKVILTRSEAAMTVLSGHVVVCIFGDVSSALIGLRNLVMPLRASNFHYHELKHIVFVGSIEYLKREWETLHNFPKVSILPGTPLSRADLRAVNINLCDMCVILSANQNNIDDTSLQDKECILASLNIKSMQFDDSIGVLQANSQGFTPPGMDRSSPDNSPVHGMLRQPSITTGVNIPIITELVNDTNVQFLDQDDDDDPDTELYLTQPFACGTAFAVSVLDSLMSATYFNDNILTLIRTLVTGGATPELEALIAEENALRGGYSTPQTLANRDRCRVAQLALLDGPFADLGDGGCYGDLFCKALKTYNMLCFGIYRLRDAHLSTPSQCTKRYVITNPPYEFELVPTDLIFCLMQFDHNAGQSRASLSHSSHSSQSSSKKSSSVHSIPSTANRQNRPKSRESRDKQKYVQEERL

[6] = logP; assay type: physicochemical
[7] = molecular target: T3, hKV2.1 (Homo sapiens, UniProt Q14721); assay: KV2.1 current inhibition (HEK293); assay type: cell-based
T3 construct: host or cells: HEK293
T3 sequence (Q14721 whole entry): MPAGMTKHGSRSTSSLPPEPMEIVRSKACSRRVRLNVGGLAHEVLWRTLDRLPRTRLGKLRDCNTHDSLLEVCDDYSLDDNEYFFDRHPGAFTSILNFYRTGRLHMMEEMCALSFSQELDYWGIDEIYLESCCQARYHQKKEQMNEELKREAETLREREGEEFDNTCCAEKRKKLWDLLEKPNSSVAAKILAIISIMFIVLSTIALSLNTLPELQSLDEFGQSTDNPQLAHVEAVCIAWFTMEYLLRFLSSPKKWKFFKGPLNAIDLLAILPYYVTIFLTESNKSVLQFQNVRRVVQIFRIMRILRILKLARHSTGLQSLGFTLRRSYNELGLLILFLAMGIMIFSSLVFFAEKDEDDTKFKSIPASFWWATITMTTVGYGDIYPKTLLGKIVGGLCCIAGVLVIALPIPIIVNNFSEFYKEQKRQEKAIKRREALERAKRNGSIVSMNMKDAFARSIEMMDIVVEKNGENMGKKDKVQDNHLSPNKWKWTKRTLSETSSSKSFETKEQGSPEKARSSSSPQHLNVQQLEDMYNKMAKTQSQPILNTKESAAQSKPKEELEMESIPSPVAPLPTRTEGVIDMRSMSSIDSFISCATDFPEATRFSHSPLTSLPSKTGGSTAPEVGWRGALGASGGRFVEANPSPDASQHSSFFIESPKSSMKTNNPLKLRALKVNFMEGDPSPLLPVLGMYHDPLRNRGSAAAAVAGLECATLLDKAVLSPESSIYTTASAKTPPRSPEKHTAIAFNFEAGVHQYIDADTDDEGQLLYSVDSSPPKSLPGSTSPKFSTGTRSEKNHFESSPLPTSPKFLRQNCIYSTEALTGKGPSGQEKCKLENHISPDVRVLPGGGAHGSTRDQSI
From the text: as §1, §2

[8] = molecular target: T4, hNaV1.5 (Homo sapiens, UniProt Q14524); assay: NaV1.5 current inhibition (HEK-293); assay type: cell-based; details: HEK293
T4 construct: host or cells: HEK-293
T4 sequence (Q14524 whole entry): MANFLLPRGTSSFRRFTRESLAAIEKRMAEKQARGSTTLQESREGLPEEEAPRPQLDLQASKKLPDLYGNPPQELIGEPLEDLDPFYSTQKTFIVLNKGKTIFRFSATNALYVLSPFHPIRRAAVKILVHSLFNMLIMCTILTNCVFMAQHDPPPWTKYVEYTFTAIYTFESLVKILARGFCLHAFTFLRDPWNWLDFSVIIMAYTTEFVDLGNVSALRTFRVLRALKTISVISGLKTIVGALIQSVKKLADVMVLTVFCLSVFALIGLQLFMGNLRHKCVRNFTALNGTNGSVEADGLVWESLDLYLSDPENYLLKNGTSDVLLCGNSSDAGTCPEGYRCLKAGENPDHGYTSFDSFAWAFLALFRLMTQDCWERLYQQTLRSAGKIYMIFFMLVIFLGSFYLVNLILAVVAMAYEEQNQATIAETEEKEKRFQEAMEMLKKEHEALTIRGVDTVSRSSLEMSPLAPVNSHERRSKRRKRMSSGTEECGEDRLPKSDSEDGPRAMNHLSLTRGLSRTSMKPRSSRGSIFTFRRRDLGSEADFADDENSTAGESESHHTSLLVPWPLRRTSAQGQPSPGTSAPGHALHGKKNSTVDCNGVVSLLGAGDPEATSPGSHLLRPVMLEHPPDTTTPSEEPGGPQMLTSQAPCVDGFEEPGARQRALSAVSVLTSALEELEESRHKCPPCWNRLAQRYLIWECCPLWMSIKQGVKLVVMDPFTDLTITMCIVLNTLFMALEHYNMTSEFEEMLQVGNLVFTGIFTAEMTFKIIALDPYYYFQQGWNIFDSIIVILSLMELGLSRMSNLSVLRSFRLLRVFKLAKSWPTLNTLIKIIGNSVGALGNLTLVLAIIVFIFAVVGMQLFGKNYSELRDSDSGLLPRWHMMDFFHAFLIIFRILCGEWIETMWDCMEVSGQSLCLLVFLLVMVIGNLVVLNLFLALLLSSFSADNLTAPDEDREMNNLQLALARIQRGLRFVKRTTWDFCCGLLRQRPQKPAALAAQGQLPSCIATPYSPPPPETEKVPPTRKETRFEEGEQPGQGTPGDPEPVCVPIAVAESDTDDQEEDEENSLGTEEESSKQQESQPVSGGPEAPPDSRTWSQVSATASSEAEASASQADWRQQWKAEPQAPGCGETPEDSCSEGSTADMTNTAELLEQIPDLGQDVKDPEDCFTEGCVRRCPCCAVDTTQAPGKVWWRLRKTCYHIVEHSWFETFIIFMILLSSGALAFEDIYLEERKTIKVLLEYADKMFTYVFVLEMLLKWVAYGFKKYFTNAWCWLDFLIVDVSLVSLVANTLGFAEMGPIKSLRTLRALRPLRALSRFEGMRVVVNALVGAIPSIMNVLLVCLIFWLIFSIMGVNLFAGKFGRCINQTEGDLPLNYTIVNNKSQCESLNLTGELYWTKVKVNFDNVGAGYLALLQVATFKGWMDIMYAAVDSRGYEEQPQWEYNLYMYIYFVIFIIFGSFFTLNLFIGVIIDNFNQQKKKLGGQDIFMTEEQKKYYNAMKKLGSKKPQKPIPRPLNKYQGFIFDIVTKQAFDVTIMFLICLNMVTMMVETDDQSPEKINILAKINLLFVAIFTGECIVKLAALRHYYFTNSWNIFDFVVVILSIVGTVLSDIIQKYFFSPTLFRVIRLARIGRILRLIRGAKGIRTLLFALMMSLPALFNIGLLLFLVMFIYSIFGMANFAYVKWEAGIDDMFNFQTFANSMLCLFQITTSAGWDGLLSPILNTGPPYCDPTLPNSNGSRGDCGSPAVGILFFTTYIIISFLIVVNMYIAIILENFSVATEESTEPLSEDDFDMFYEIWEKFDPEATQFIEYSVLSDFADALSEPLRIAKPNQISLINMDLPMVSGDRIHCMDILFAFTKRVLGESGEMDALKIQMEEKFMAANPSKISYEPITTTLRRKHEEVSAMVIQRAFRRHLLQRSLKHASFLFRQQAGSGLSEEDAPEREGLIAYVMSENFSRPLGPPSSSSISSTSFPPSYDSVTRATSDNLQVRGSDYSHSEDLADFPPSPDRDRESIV

T1 sequence (P16390 whole entry): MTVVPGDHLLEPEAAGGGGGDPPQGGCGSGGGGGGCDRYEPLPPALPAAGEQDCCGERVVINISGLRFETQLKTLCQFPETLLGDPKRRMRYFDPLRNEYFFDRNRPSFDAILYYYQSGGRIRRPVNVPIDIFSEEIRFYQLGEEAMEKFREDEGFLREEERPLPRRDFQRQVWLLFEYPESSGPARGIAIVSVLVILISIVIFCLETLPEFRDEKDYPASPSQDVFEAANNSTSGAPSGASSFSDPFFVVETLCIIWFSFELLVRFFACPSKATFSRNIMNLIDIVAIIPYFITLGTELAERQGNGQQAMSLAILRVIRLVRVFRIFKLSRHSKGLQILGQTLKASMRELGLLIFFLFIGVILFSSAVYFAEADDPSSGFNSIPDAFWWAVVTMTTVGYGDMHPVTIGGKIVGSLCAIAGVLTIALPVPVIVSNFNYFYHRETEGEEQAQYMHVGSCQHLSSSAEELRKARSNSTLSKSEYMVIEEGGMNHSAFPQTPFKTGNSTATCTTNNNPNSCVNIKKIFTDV

In the case of `Cc1cc2nc(N)oc2c2ccccc12` [SKA-121, 5-Methylnaphtho[2,1-d]oxazol-2-amine], the inhibition at 50 µM ([1]; at 50 μM) is reported as 27.5 ± 7.2%, the “MAP” value ([2]; 30 mg/kg i.p.) is reported as “Neither SKA-111 nor SKA-121 caused significant changes; also recorded: did not produce significant alterations” and the “drop in mean arterial blood pressure (MAP)” value ([2]; 100 mg/kg i.p.) is reported as ~20 mmHg. For the same molecule, the “duration of MAP drop” value ([2]; 100 mg/kg i.p.) was ~3 h, the “heart rate” value ([2]; 100 mg/kg i.p.) was “not and only moderately reduced” and the “mean arterial blood pressure” value ([2]; 100 mg/kg i.p.) was “reduced mean arterial blood pressure”. For the same molecule, the EC50 [3] was 8.7 ± 1.6 µM, the “Hill coefficient nH, KCa2.1 concentration-response curve” value ([3]; FIG. 4 legend) was 4.1 and the EC50 [4] was 6.8 ± 2.2 µM. For the same molecule, the “Hill coefficient nH, KCa2.2 concentration-response curve” value ([4]; FIG. 4 legend) was 1.7, the “KCa1.1 % of current” value ([5]; at 50 μM) was 115% of current at 50 μM (3) and the logP [6] was 1.79. The inhibition at 50 µM ([7]; at 50 μM) was 43.2 ± 12.5% and the inhibition at 50 µM ([8]; at 50 μM) was 32.1 ± 11.1%.

With `Cc1cc2sc(N)nc2c2ccccc12` [SKA-111, 5-methylnaphtho[1,2-d]thiazol-2-amine] the inhibition at 25 µM ([1]; at 25 μM) was 28.5 ± 2.3%, the “MAP” value ([2]; 30 mg/kg i.p.) was “Neither SKA-111 nor SKA-121 caused significant changes; also recorded: did not produce significant alterations” and the “change of HR” value ([2]; 30 mg/kg i.p.) was ~−50 bpm. For the same molecule, the “duration of HR decrease after injection” value ([2]; 30 mg/kg i.p.) was ~2 h, the “heart rate” value ([2]; 30 mg/kg i.p., 2 h after injection) was “moderately reduced heart rate” and the “drop in mean arterial blood pressure (MAP)” value ([2]; 100 mg/kg i.p.) was ~25 mmHg. For the same molecule, the “heart rate” value ([2]; 100 mg/kg i.p.) was “severely reduced heart rate”, the “reduction of heart rate (HR)” value ([2]; 100 mg/kg i.p.) was ~400 bpm and the “mean arterial blood pressure” value ([2]; 100 mg/kg i.p.) was “reduced mean arterial blood pressure”. The “KCa1.1 % of current” value ([5]; at 25 μM) was 120% of current at 25 μM (3), the inhibition at 25 µM ([7]; at 25 μM) was 37.3 ± 9% and the inhibition at 25 µM ([8]; at 25 μM) was 39.9 ± 11.1%.
